Test results taken from ChEMBL document CHEMBL3044931, “Synthesis and Antimuscarinic Activity of Derivatives of 2-Substituted-1,3-Dioxolanes” (Med Chem Res, 2005).

system: not listed separately; test: Selectivity ratio of pKb for rabbit vas deferens M1 receptor to pKb for guinea pig left atria M2 receptor; settings: not given

Q: With `CN(C)CC1COC(c2ccccc2)(c2ccccc2)O1` (configuration not stated) as the molecule, how does the Ratio pKb read?
A: 1

Q: For `CN(C)C[C@@H]1CO[C@@H](C(c2ccccc2)c2ccccc2)O1`, which Ratio pKb is on record?
A: 2

Q: Which Ratio pKb does the source give for `CN(C)C[C@@H]1CO[C@H](C(c2ccccc2)c2ccccc2)O1` (relative stereo) here?
A: 5

Q: With `C[C@@H]1OC(c2ccccc2)(c2ccccc2)O[C@@H]1CN(C)C` (relative stereo) as the molecule, how does the Ratio pKb read?
A: 0.7

Q: With `C[C@H]1OC(c2ccccc2)(c2ccccc2)O[C@@H]1CN(C)C` (relative stereo) as the molecule, how does the Ratio pKb read?
A: 1

system: not listed separately; test: Antagonist activity at Oryctolagus cuniculus (rabbit) vas deferens M1 receptor after 1 hr; settings: read-out: pA2 (converted)

Q: With `CN(C)[C@H]1CO[C@@H](C(c2ccccc2)c2ccccc2)OC1` as the molecule, how does the Kb read?
A: 6.17 nM

Q: Which Kb does the source give for `CN(C)[C@H]1CO[C@H](C(c2ccccc2)c2ccccc2)OC1` here?
A: 389 nM

organism: Cavia porcellus; test: Selectivity ratio of pKb for Cavia porcellus (guinea pig) ileum M3 receptor to pKb for Cavia porcellus (guinea pig) left atria M2 receptor; format: tissue-based; settings: Atrium/Ileum

Q: For `CN(C)CC1COC(c2ccccc2)(c2ccccc2)O1` (configuration not stated), which Ratio pKb is on record?
A: 0.4

Q: Which Ratio pKb does the source give for `CN(C)C[C@@H]1CO[C@@H](C(c2ccccc2)c2ccccc2)O1` here?
A: 1

Q: Which Ratio pKb does the source give for `CN(C)C[C@@H]1CO[C@H](C(c2ccccc2)c2ccccc2)O1` (relative stereo) here?
A: 0.3

Q: Which Ratio pKb does the source give for `C[C@@H]1OC(c2ccccc2)(c2ccccc2)O[C@@H]1CN(C)C` (relative stereo) here?
A: 0.9

Q: With `C[C@H]1OC(c2ccccc2)(c2ccccc2)O[C@@H]1CN(C)C` (relative stereo) as the molecule, how does the Ratio pKb read?
A: 1

system: not listed separately; test: Selectivity ratio of pKb for rabbit vas deferens M1 receptor to pKb for guinea pig ileum M3 receptor; format: tissue-based; settings: not given

Q: Which Ratio pKb does the source give for `CN(C)CC1COC(c2ccccc2)(c2ccccc2)O1` (configuration not stated) here?
A: 3

Q: For `CN(C)C[C@@H]1CO[C@@H](C(c2ccccc2)c2ccccc2)O1`, which Ratio pKb is on record?
A: 2

Q: Which Ratio pKb does the source give for `CN(C)C[C@@H]1CO[C@H](C(c2ccccc2)c2ccccc2)O1` (relative stereo) here?
A: 17

Q: Which Ratio pKb does the source give for `C[C@@H]1OC(c2ccccc2)(c2ccccc2)O[C@@H]1CN(C)C` (relative stereo) here?
A: 0.8

Q: With `C[C@H]1OC(c2ccccc2)(c2ccccc2)O[C@@H]1CN(C)C` (relative stereo) as the molecule, how does the Ratio pKb read?
A: 1

organism: Oryctolagus cuniculus; test: Binding affinity to Oryctolagus cuniculus (rabbit) vas deferens M1 receptor after 1 hr; settings: not given

Q: Which pKb does the source give for `CN(C)CC1COC(c2ccccc2)(c2ccccc2)O1` (configuration not stated) here?
A: 7.15

Q: For `CN(C)C[C@@H]1CO[C@@H](C(c2ccccc2)c2ccccc2)O1`, which pKb is on record?
A: 6.9

Q: Which pKb does the source give for `CN(C)C[C@@H]1CO[C@H](C(c2ccccc2)c2ccccc2)O1` (relative stereo) here?
A: 7.31

Q: For `C[C@@H]1OC(c2ccccc2)(c2ccccc2)O[C@@H]1CN(C)C` (relative stereo), which pKb is on record?
A: 6.35

Q: Which pKb does the source give for `C[C@H]1OC(c2ccccc2)(c2ccccc2)O[C@@H]1CN(C)C` (relative stereo) here?
A: 6.87

biological target: T1, Muscarinic receptor 2 (Cavia porcellus) (UniProt Q8VH27); test: Binding affinity to Cavia porcellus (guinea pig) left atria M2 receptor after 2 hr; settings: not given
T1 sequence (whole entry): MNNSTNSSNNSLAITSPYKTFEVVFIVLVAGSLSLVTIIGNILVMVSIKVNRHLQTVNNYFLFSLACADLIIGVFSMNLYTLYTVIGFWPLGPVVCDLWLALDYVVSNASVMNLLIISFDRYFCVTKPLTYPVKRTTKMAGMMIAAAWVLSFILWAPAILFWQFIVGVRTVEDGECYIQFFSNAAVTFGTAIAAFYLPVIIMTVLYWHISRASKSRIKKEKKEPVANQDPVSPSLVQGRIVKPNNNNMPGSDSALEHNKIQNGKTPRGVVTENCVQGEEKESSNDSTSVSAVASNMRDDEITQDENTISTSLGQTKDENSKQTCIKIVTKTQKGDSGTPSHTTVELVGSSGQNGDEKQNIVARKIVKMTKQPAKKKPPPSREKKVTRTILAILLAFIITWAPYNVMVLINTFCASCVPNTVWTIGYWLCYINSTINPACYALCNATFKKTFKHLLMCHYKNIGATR

Q: For `CN(C)CC1COC(c2ccccc2)(c2ccccc2)O1` (configuration not stated), which pKb is on record?
A: 7.11

Q: For `CN(C)C[C@@H]1CO[C@@H](C(c2ccccc2)c2ccccc2)O1`, which pKb is on record?
A: 6.56

Q: With `CN(C)C[C@@H]1CO[C@H](C(c2ccccc2)c2ccccc2)O1` (relative stereo) as the molecule, how does the pKb read?
A: 6.62

Q: Which pKb does the source give for `C[C@@H]1OC(c2ccccc2)(c2ccccc2)O[C@@H]1CN(C)C` (relative stereo) here?
A: 6.48

Q: With `C[C@H]1OC(c2ccccc2)(c2ccccc2)O[C@@H]1CN(C)C` (relative stereo) as the molecule, how does the pKb read?
A: 6.71

biological target: Muscarinic acetylcholine receptor M3 (Cavia porcellus) (UniProt Q8VH26); test: Binding affinity to Cavia porcellus (guinea pig) ileum M3 receptor after 30 min; format: tissue-based; settings: not given
Sequence (Q8VH26 1-587): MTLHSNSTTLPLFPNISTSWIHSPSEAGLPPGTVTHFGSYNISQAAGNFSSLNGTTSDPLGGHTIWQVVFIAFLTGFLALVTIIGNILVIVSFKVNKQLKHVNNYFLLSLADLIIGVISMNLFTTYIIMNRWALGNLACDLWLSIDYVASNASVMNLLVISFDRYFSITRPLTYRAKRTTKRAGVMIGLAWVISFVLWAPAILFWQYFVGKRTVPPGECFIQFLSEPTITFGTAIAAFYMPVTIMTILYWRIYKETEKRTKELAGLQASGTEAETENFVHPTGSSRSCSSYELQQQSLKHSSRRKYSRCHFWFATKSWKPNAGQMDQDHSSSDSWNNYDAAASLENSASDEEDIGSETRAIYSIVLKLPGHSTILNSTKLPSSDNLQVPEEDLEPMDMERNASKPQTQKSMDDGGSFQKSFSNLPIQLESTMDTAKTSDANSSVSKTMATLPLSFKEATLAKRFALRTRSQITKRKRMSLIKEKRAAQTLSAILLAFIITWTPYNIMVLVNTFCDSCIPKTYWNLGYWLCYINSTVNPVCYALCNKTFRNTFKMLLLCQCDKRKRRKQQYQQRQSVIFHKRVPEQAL

Q: Which pKb does the source give for `CN(C)CC1COC(c2ccccc2)(c2ccccc2)O1` (configuration not stated) here?
A: 6.72

Q: Which pKb does the source give for `CN(C)C[C@@H]1CO[C@@H](C(c2ccccc2)c2ccccc2)O1` here?
A: 6.67

Q: With `CN(C)C[C@@H]1CO[C@H](C(c2ccccc2)c2ccccc2)O1` (relative stereo) as the molecule, how does the pKb read?
A: 6.07

Q: Which pKb does the source give for `C[C@@H]1OC(c2ccccc2)(c2ccccc2)O[C@@H]1CN(C)C` (relative stereo) here?
A: 6.44

Q: With `C[C@H]1OC(c2ccccc2)(c2ccccc2)O[C@@H]1CN(C)C` (relative stereo) as the molecule, how does the pKb read?
A: 6.71
